This assay has as its target T1, recombinant human Syk (GST-hSyk fusion protein) (Homo sapiens, UniProt P43405).
T1 construct: purchased Carna Biosciences 08-176
The assay can be described thus: Homogeneous Time-Resolved Fluorescence (HTRF) assay for the recombinant human Syk enzyme. The class given is biochemical. To be noted: 10-dose titration, 25 μM ATP. A digest of the protocol:
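GST-hSyk (5 pM) preincubated 10 min with compound (0.1% DMSO) in 15 mM Tris-HCl pH 7.5, 2 mM DTT; reaction started with 250 nM biotinylated peptide, 5 mM Mg, 25 μM ATP, 45 min, room temperature. EDTA quench, Eu-anti-phosphotyrosine/SA-APC HTRF read after 30 min; IC50 from 10-dose titration (10 μM–0.508 nM), four-parameter fit.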
(In general: In TR-FRET formats the signal depends on donor and acceptor labels being close together.)

The mark [1] stands for this setting: IC50 class, read-out: rhSYK Activity.

Where two headings read alike, the source gives them in different places.

In patent publication US9242984B2, “Pyrazolyl derivatives as Syk inhibitors” (Merck Sharp & Dohme Corp., priority 2012, dated 2016) one finds IC50 data, which are given here for 34 molecules.

Turning to `Cc1cc(Nc2nccc(C(F)(F)F)n2)cc(-c2cnn(C3CCC(C(=O)O)CC3)c2)c1` (centres unmarked) [Example 1.56, 4-[4-(3-methyl-5-{[4-(trifluoromethyl)pyrimidin-2-yl]amino}phenyl)-1H-pyrazol-1-yl]cyclohexanecarboxylic acid], the IC50 under setting [1] is at most 100 nM.
Same read-out and setting: under `Cc1cc(Nc2nccc(C(F)(F)F)n2)cc(-c2cnn(C3CCC(C(=O)O)CC3)c2)c1` (centres unmarked) [Example 1.57, 4-[4-(3-methyl-5-{[4-(trifluoromethyl)pyrimidin-2-yl]amino}phenyl)-1H-pyrazol-1-yl]cyclohexanecarboxylic acid] stands at most 100 nM; under `Cc1cc(Nc2nccc(C)n2)cc(-c2cnn(C3CCC(C(=O)O)CC3)c2)c1` (centres unmarked) [Example 1.58, 4-(4-{3-methyl-5-[(4-methylpyrimidin-2-yl)amino]phenyl}-1H-pyrazol-1-yl)cyclohexanecarboxylic acid], at most 100 nM.
With `Cc1cc(Nc2nccc(C)n2)cc(-c2cnn(C3CCC(C(=O)O)CC3)c2)c1` (centres unmarked) [Example 1.59, 4-(4-{3-methyl-5-[(4-methylpyrimidin-2-yl)amino]phenyl}-1H-pyrazol-1-yl)cyclohexanecarboxylic acid], the IC50 under setting [1] is at most 100 nM.
Same read-out and setting: as for `O=C(O)C1CCC(n2cc(-c3cc(Cl)cc(Nc4nccc(C(F)(F)F)n4)c3)cn2)CC1` (centres unmarked) [Example 1.60, 4-[4-(3-chloro-5-{[4-(trifluoromethyl)pyrimidin-2-yl]amino}phenyl)-1H-pyrazol-1-yl]cyclohexanecarboxylic acid], the figure is at most 100 nM; as for `O=C(O)C1CCC(n2cc(-c3cc(Cl)cc(Nc4nccc(C(F)(F)F)n4)c3)cn2)CC1` (centres unmarked) [Example 1.61, 4-[4-(3-chloro-5-{[4-(trifluoromethyl)pyrimidin-2-yl]amino}phenyl)-1H-pyrazol-1-yl]cyclohexanecarboxylic acid], at most 100 nM; as for `Cc1cc(Nc2cc(C(F)F)ccn2)nc(-c2cnn(C(C)C3CNC(=O)C3)c2)c1` (centres unmarked) [Example 1.62, 4-{1-[4-(6-{[4-(difluoromethyl)pyridin-2-yl]amino}-4-methylpyridin-2-yl)-1H-pyrazol-1-yl]ethyl}pyrrolidin-2-one], at most 100 nM.
For the molecule `Cc1cc(Nc2cc(C(F)F)ccn2)nc(-c2cnn(C(C)C3CNC(=O)C3)c2)c1` (centres unmarked) [Example 1.63, 4-{1-[4-(6-{[4-(difluoromethyl)pyridin-2-yl]amino}-4-methylpyridin-2-yl)-1H-pyrazol-1-yl]ethyl}pyrrolidin-2-one], under setting [1], the IC50 was at most 100 nM.
On to `Cc1cc(Nc2cc(C(F)F)ccn2)nc(-c2cnn(C(C)C3CNC(=O)C3)c2)c1` (centres unmarked) [Example 1.64, 4-{1-[4-(6-{[4-(difluoromethyl)pyridin-2-yl]amino}-4-methylpyridin-2-yl)-1H-pyrazol-1-yl]ethyl}pyrrolidin-2-one], for which, under setting [1], the IC50 was at most 100 nM.
Take `Cc1cc(Nc2nccc(C(F)F)n2)cc(-c2cn[nH]c2)c1` [Example 1.65, 4-(difluoromethyl)-N-[3-methyl-5-(1H-pyrazol-4-yl)phenyl]pyrimidin-2-amine]: under setting [1], the IC50 is at most 100 nM.
Consider `Cc1cc(Nc2cc(C(F)F)ccn2)nc(-c2cnn(C(C)C3CNC(=O)C3)c2)c1` (centres unmarked) [Example 1.66, 4-{1-[4-(6-{[4-(difluoromethyl)pyridin-2-yl]amino}-4-methylpyridin-2-yl)-1H-pyrazol-1-yl]ethyl}pyrrolidin-2-one], for which the IC50 under setting [1] was at most 100 nM.
With `COc1ccnc(Nc2cc(C)cc(-c3cnn(CCC(=O)O)c3)c2)n1` [Example 2.1, 3-(4-(3-((4-methoxypyrimidin-2-yl)amino)-5-methylphenyl)-1H-pyrazol-1-yl)propanoic acid], the IC50 by setting is: (read-out: rhSYK IC50) 22.1 nM; under setting [1], at most 100 nM.
Take `CCOC(=O)CCn1cc(-c2cccc(Nc3nccc(C(F)(F)F)n3)c2)cn1` [Example 2.2, ethyl 3-[4-(3-{[4-(trifluoromethyl)-pyrimidin-2-yl]-amino}phenyl)-1H-pyrazol-1-yl]-propanoate]: the IC50 under setting [1] is 100 to 1000 nM.
For `CCOC(=O)CCn1cc(-c2cc(C)cc(Nc3nccc(OC)n3)c2)cn1` [Example 2.3, ethyl 3-(4-{3-[(4-methoxypyrimidin-2-yl)amino]-5-methylphenyl}-1H-pyrazol-1-yl)-propanoate], the IC50 under setting [1] was at most 100 nM.
In the case of `O=C(O)CCn1cc(-c2cccc(Nc3nccc(C(F)(F)F)n3)c2)cn1` [Example 2.5, 3-[4-(3-{[4-(trifluoro-methyl)pyrimidin-2-yl]amino}phenyl)-1H-pyrazol-1-yl]-propanoic acid], under setting [1], the IC50 is at most 100 nM.
Take `Cc1cc(Nc2ncc(F)c(C)n2)cc(-c2cnn(CCC(N)=O)c2)c1` [Example 2.6, 3-(4-{3-[(5-fluoro-4-methylpyrimidin-2-yl)amino]-5-methylphenyl}-1H-pyrazol-1-yl)propanamide]: the IC50 under setting [1] is at most 100 nM.
In the case of `COc1nc(Nc2cc(C)cc(-c3cnn(CCC(N)=O)c3)c2)ncc1Cl` [Example 2.7, 3-(4-{3-[(5-chloro-4-methoxypyrimidin-2-yl)amino]-5-methylphenyl}-1H-pyrazol-1-yl)propanamide], the IC50 under setting [1] was at most 100 nM.
Consider `Cc1cc(Nc2nccc(C(C)C)n2)cc(-c2cnn(CCC(N)=O)c2)c1` [Example 2.8, 3-[4-(3-methyl-5-{[4-(1-methylethyl)-pyrimidin-2-yl]-amino}phenyl)-1H-pyrazol-1-yl]propanamide], for which the IC50 under setting [1] was at most 100 nM.
Take `Cc1cc(Nc2nccc(C(F)F)n2)cc(-c2cnn(CCC(N)=O)c2)c1` [Example 2.9, 3-[4-(3-{[4-(difluoromethyl)pyrimidin-2-yl]amino}-5-methylphenyl)-1H-pyrazol-1-yl]propanamide]: the IC50 under setting [1] was at most 100 nM.
Regarding `Cc1ccnc(Nc2cccc(-c3cnn(CCC(N)=O)c3)c2)n1` [Example 2.10, 3-(4-{3-[(4-methylpyrimidin-2-yl)amino]phenyl}-1H-pyrazol-1-yl)propanamide], under setting [1], the IC50 fell in the range of 100 to 1000 nM.
As to `COc1nc(Nc2cc(C)cc(-c3cnn(CCC(N)=O)c3)c2)ncc1F` [Example 2.11, 3-(4-{3-[(5-fluoro-4-methoxypyrimidin-2-yl)amino]-5-methylphenyl}-1H-pyrazol-1-yl)propanamide], the IC50 under setting [1] was at most 100 nM.
Take `Cc1cc(Nc2nccc(C)n2)cc(-c2cnn(CCC(N)=O)c2)c1` [Example 2.12, 3-(4-{3-methyl-5-[(4-methylpyrimidin-2-yl)amino]phenyl}-1H-pyrazol-1-yl)propanamide]: the IC50 under setting [1] was at most 100 nM.
On to `Cc1cc(Nc2ncc(Cl)c(C)n2)cc(-c2cnn(CCC(N)=O)c2)c1` [Example 2.13, 3-(4-{3-[(5-chloro-4-methylpyrimidin-2-yl)amino]-5-methylphenyl}-1H-pyrazol-1-yl)propanamide], for which the IC50 under setting [1] was at most 100 nM.
The same measure, in the same setting: as for `Cc1cc(Nc2nccc(C3CC3)n2)cc(-c2cnn(CCC(N)=O)c2)c1` [Example 2.14, 3-(4-{3-[(4-cyclopropylpyrimidin-2-yl)amino]-5-methylphenyl}-1H-pyrazol-1-yl)propanamide], the figure is at most 100 nM; as for `NC(=O)CCn1cc(-c2cccc(Nc3nccc(C(F)(F)F)n3)c2)cn1` [Example 2.15, 3-[4-(3-{[4-(trifluoromethyl)pyrimidin-2-yl]amino}phenyl)-1H-pyrazol-1-yl]propanamide], at most 100 nM; as for `Cc1ccnc(Nc2cccc(-c3cnn(CC4CNC(=O)O4)c3)c2)n1` (centres unmarked) [Example 2.16, 5-[(4-{3-[(4-methylpyrimidin-2-yl)amino]phenyl}-1H-pyrazol-1-yl)methyl]-1,3-oxazolidin-2-one], 100 to 1000 nM.
Same read-out and setting: under `COc1ccnc(Nc2cc(C)cc(-c3cnn(CC4CNC(=O)O4)c3)c2)n1` (centres unmarked) [Example 2.17, 5-[(4-{3-[(4-methoxypyrimidin-2-yl)amino]-5-methylphenyl}-1H-pyrazol-1-yl)methyl]-1,3-oxazolidin-2-one] stands at most 100 nM; under `Cc1cc(Nc2nccc(C)n2)cc(-c2cnn(CC3CNC(=O)O3)c2)c1` (centres unmarked) [Example 2.18, 5-[(4-{3-methyl-5-[(4-methylpyrimidin-2-yl)amino]phenyl}-1H-pyrazol-1-yl)methyl]-1,3-oxazolidin-2-one], at most 100 nM.
As for `Cc1cc(Nc2nccc(C3CC3)n2)cc(-c2cnn(CC3CNC(=O)O3)c2)c1` (centres unmarked) [Example 2.19, 5-[(4-{3-[(4-cyclopropylpyrimidin-2-yl)amino]-5-methylphenyl}-1H-pyrazol-1-yl)methyl]-1,3-oxazolidin-2-one], the IC50 under setting [1] is at most 100 nM.
As for `Cc1ccnc(Nc2cccc(-c3cnn(CC4CNC(=O)O4)c3)c2)n1` (centres unmarked) [Example 2.20, 5-[(4-{3-[(4-methylpyrimidin-2-yl)amino]phenyl}-1H-pyrazol-1-yl)methyl]-1,3-oxazolidin-2-one], the IC50 under setting [1] was at most 100 nM.
Regarding `COc1ccnc(Nc2cc(C)cc(-c3cnn(CC4CNC(=O)O4)c3)c2)n1` (centres unmarked) [Example 2.21, 5-[(4-{3-[(4-methoxypyrimidin-2-yl)amino]-5-methylphenyl}-1H-pyrazol-1-yl)methyl]-1,3-oxazolidin-2-one], the IC50 under setting [1] is at most 100 nM.
Same read-out and setting: under `Cc1cc(Nc2ncc(F)c(C)n2)cc(-c2cnn(CC3CNC(=O)O3)c2)c1` (centres unmarked) [Example 2.22, 5-[(4-{3-[(5-fluoro-4-methylpyrimidin-2-yl)amino]-5-methylphenyl}-1H-pyrazol-1-yl)methyl]-1,3-oxazolidin-2-one] stands at most 100 nM; under `COc1nc(Nc2cc(C)cc(-c3cnn(CC4CNC(=O)O4)c3)c2)ncc1Cl` (centres unmarked) [Example 2.23, 5-[(4-{3-[(5-chloro-4-methoxypyrimidin-2-yl)amino]-5-methylphenyl}-1H-pyrazol-1-yl)methyl]-1,3-oxazolidin-2-one], at most 100 nM.
As for `Cc1cc(Nc2nccc(C(C)C)n2)cc(-c2cnn(CC3CNC(=O)O3)c2)c1` (centres unmarked) [Example 2.24, 5-{[4-(3-methyl-5-{[4-(1-methylethyl)pyrimidin-2-yl]amino}phenyl)-1H-pyrazol-1-yl]methyl}-1,3-oxazolidin-2-one], the IC50 under setting [1] was at most 100 nM.
